From patent US20130085133A1, “ANTI-VIRAL TREATMENT AND ASSAY TO SCREENFOR ANTI-VIRAL AGENT” (Sourthern Research Institute Office of Commercialization …, priority 2010, published 2013)
Read-outs that look alike come from different tables or passages of the source.

What was measured:
[1] = test system: respiratory syncytial virus (RSV) strain Long; assay: microbe, parasite or virus in culture; details: human respiratory syncytial virus, HEp-2, 144 h
Experimental: The assay measures RSV virus-induced CPE in HEp-2 cells using cell viability as the end point.
Two vials of RSV (strain Long) containing 1×10^7 pfu/mL was thawed using an Eppendorf thermomixer for 13 min at 15° C., with shaking at 350 rpm. […] The cells were incubated for 18-20 h at 37° C., 5% CO2, 90% relative humidity. The medium was aspirated and the cells washed with 10 mL PBS without Mg^2+ or Ca^2+. Cells were harvested from flasks using 0.25% trypsin-EDTA. The cells were resuspended in a freezing medium of 95% fetal calf serum and 5% DMSO to a final cell density of 2×10^6 cells/mL. One mL aliquots of this virus infected cell suspension were dispensed to cryovials and cells were rate frozen to −80° C. Frozen infected cells were then transferred to −150° C. for long term storage.
Test compounds were evaluated by measuring their antiviral activity, cell toxicity, and selectivity. Test compounds were serially diluted in a plate to plate matrix or “stacked plate” matrix. All 320 compounds in a source plate were diluted together resulting in a 10 point dose response dilution series. It was visualized as a serial dilution series proceeding vertically through a stack of plates with the high dose plate on top and the low dose plate on the bottom.
Cells were harvested and resuspended to 80,000 cells per ml in Complete DMEM/F12.
Cells were thawed in a room temperature water bath with gentle agitation. The tube was inverted 5-10. Cells were diluted to 80,000 cells per ml by adding the contents of the vial to 24 ml of cold (4° C.) media.
Twenty five ul of uninfected HEp-2 cells were plated in the cell control wells. Frozen infected cells were combined with uninfected HEp-2 cells at a 1:100 ratio. Twenty five ul of the cell mixture was added to the virus control and compound wells. All cell plating was conducted using a Matrix WellMate and cells were maintained at room temperature with stirring during the plating process. The assay plates were incubated for six days at 37° C., 5% CO2 and 90% relative humidity.
Following the six day incubation period, the assay plates were equilibrated to room temperature for 30 min and an equal volume (30 μL) of Cell Titer-Glo reagent (Promega Inc.) was added to each well using a WellMate (Matrix, Hudson, N.H.) and plates were incubated for an additional 10 min at room temperature. At the end of the incubation, luminescence was measured using a Perkin Elmer Envision™ multi-label reader (PerkinElmer, Wellesley, Mass.) with an integration time of 0.1 s.
Data was analyzed using ActivityBase software (IDBS, Inc, Guilford, UK). thirty two control wells containing cells only and twenty four wells containing cells and virus were included on each assay plate and used to calculate Z′ value for each plate and to normalize the data on a per plate basis. […] Eight ribavirin positive control wells were included on each plate for quality control purposes, but were not used in Z′ calculations. […] In the toxicity assay, results are described as percent viability and the calculation is the same.
An EC50 (for CPE inhibition) and IC50 (for cell viability) were calculated for each substance using the 4 parameter Levenburg-Marquardt algorithm with parameter A locked at 0 and parameter B locked at 100. Standard deviation, normalized chi2 and hill slope were used to evaluate the curves. Values were not extrapolated beyond the tested range of concentrations.

[2] = in vitro; details: human
[3] = test system: respiratory syncytial virus (RSV) strain Long; details: EC50 for CPE inhibition, HEp-2 cells, six days; unit not given; tested range 25 ug/mL to 0.048 ug/mL (Chembridge), 50 uM to 0.097 uM (Enamine, SRI Proprietary)
[4] = test system: RSV, Long strain; assay: virus titer Reduction (VTR) assay, progeny virus TCID50 in HEp-2 cells; type: cell-based, respiratory syncytial virus (RSV); details: log reduction in progeny virus titer
Experimental: Four concentrations of each compound were evaluated (Table 3). Briefly, the four concentrations of test compounds, HEp-2 cells (8×10^3 per well) and RSV, Long strain (MOI=0.9) were plated in 96 well microtiter plates. The plates were incubated for 48 hours. Fifteen (15) μl of 10-fold serial dilution of progeny virus containing medium from respective samples (test compound treated or untreated) was transferred to infect fresh HEp-2 cells (2×10^3 cells per well) in a 384 well format. Plates were incubated for an additional 6 days and luminescence was measured using Cell Titer-Glo reagent (Promega Inc.) to determine cell viability. […] A well showing lesser than 50% cell viability was regarded as positive for virus infection. Four replicates for each virus dilution were analyzed and the number of virus positive wells (out of 4) was plotted versus the dilution. TCID50 was calculated to be the dilution that produced two positive wells out of four using ActivityBase software (IDBS, Inc, Guilford, UK).

[5] = test system: HEp-2 cells; assay: cytotoxicity assay (percent viability of HEp-2 cells, Cell Titer-Glo); details: cell viability of HEp-2 cells (text: IC50); unit not given; top concentration 25 ug/mL (Chembridge), 50 uM (Enamine, SRI Proprietary)

Row | SMILES | EC50 [1] | CC50 [2] | further results
1 | O=S(=O)(c1cc(Cl)c(O)c(Cl)c1)c1cc(Cl)c(O)c(Cl)c1 [AB00275543] | 16.2 µg/mL | – | CC50 at 6 days [2]: > 25 µg/mL
2 | COc1c2ccoc2nc2c(OC)cccc12 [AB00276394] | 15.2 µg/mL | > 25 µg/mL | –
3 | N#CCCN1CCN(C(=S)c2ccc(-c3cccc(Cl)c3)o2)CC1 [AB00294368] | 15 µg/mL | > 25 µg/mL | –
4 | Cc1cccc(-n2c(Cc3cccc([N+](=O)[O-])c3)nc3ccccc3c2=O)c1 [AB00297463] | 16.3 µg/mL | – | CC50 at 6 days [2]: > 25 µg/mL
5 | O=Cc1cn(CC(=O)N2CCc3ccccc3C2)c2ccc(Br)cc12 [AB00302396] | 23.8 µg/mL | > 25 µg/mL | –
6 | O=C(Nc1ccc2[nH]c(-c3ccccc3)nc2c1)c1ccccc1 [AB00308659] | – | – | EC50 [3]: 8.66; TCID-50 Reduction @ 3 ug/ml ([4]; 3 ug/ml compound): 2.82; TCID-50 Reduction 6 @ ug/ml ([4]; 6 ug/ml compound): 3.64; TCID-50 Reduction 12 @ ug/ml ([4]; 12 ug/ml compound): 6.43; TCID-50 Reduction 25 @ ug/ml ([4]; 25 ug/ml compound): 6.40; CC50 [5]: >25.00
7 | C=CCN1C(=O)C2(C(C#N)=C(N)Oc3ccccc32)C(C(C)=O)=C1C (stereo not drawn) [AB00364858] | 21.2 µg/mL | – | CC50 at 6 days [2]: > 25 µg/mL
8 | CNC(=S)NNC(=O)COc1ccccc1C [AB00370002] | 22 µg/mL | > 25 µg/mL | –
9 | O=c1c(F)cn(Cc2ccc([N+](=O)[O-])cc2)c(=O)n1Cc1ccc([N+](=O)[O-])cc1 [AB00373945] | 13.3 µM | > 50 µM | –
10 | Nc1ccc2c(c1)Cc1ccccc1-2 [AB00374695] | 46.8 µM | > 50 µM | –
11 | O=S(=O)(O)c1ccc2c(c1)C1=NC/2=N\c2c3cc(S(=O)(=O)O)ccc3c3[n]2[Cu][n]2/c(c4ccc(S(=O)(=O)O)cc4/c2=N/C2=NC(=N\3)/c3cc(S(=O)(=O)O)ccc32)=N\1 [AB00514356] | – | > 50 µM | –
12 | COc1ccccc1/C=N/NC(=N)N[N+](=O)[O-] [SRI-101] | 35.7 µM | > 50 µM | –
